Assay results from patent US8329645B2, “Polymyxin derivatives and uses thereof” (priority 2008, dated 2012).
Converted amounts (≈) assume the structure as drawn. Where a SMILES comes first, the peptide text is derived from it. Bridges are numbered along the chain shown (N, C = ends). [ ]: non-standard residue; d: D form. The star is where a group is joined. Decanoyl = CCCCCCCCCC(=O)*; Octanoyl = CCCCCCCC(=O)*; Dab = NCC[C@H](N)C(=O)O

Tests used:
[1] = in vivo; conditions: male, Sprague-Dawley, rat, iv, 1 mg/kg
Experimental: Four rats (Sprague-Dawley, male) were studied.
The samples were analyzed using liquid chromatography and mass spectrometry with electrospray ionization interface (LC/electrospray ionization MS).

[2] = test system: E. coli IH3080; experiment: Experimental E. coli peritonitis model in mice, NAB739 (Example 18); format: in vivo
Experimental: A suspension of E. coli IH3080 (K1:O18) in saline (0.9% NaCl) was prepared from an overnight culture on a blood agar plate (Statens Serum Institut, Copenhagen, Denmark). All mice (female NMR1 from Harlan Scandinavia, Allerød, Denmark; weight, 25-30 g) were inoculated intraperitoneally with 0.5 ml of the suspension containing 0.96×10^6 CFU per ml in the lateral lower quadrant of the abdomen. At 1 h, the CFU count was determined from three mice and the remaining mice (four mice per group) were treated with a subcutaneous injection of 0.2 ml of erythromycin solution in saline (corresponding to 5 mg/kg body weight) or NAB7061 solution in saline (corresponding to 5 mg/kg body weight), or both erythromycin and NAB7061 (corresponding to 5 mg/kg body weight of both drugs; given at two separate sites). Control group received two 0.2 ml injections of saline. At 4.5 h postinfection, all mice were anaesthetized with CO2 and sacrificed. Sterile saline (2 ml) was injected intraperitoneally and the abdomen was gently massaged before it was opened and the fluid sampled. Appropriate dilutions of the fluid were plated on blood agar plates, the plates were incubated overnight, and the colonies were counted.
The experiment was performed by using the methodology described in Example 12.
The mice were inoculated intraperitoneally with 0.5 ml of the E. coli IH3080 suspension containing 1×10^6 CFU per ml. The treatment groups (7 animals per group) were the following: A, control animals receiving saline; B, animals receiving the dose of 1 mg/kg of NAB739 subcutanously at 1 h and at 3 h postinfection; C, animals receiving the dose of 2 mg/kg of NAB739 subcutanously at 1 h and at 3 h postinfection; D, animals receiving the dose of 4 mg/kg of NAB739 subcutanously at 1 h and at 3 h postinfection; E, animals receiving the dose of 2 mg/kg of the control compound, polymyxin B sulfate (Sigma-Aldrich, P0972) subcutanously at 1 h and at 3 h postinfection.

[3] = test system: E. coli CCUG 41421
Experimental: Polymyxin B sulfate (Sigma-Aldrich, St. Louis, Mo., USA) was used as a control. […] The bacterial test strains originated from ATCC (10 strains), CCUG (11 strains), and NCTC (3 strains). Fourteen (14) strains (the F-strains) were purchased from Mobidiag Ltd., Helsinki, Finland.
The inocula were prepared by adjusting the bacterial suspensions to a density equivalent to OD546 nm˜0.3 (˜10^8 CFU/ml˜0.5 McFarland) the yeast suspension to a density equivalent to OD546 nm˜0.75 (˜2×10^7 CFU/ml)._The suspensions were diluted to 10^7 CFU/ml. The plates were inoculated by using a Denley Multipoint Inoculator, 1 μl per spot corresponding to approx. 10^4 CFU/spot. Plates were incubated for 16-20 hours at 35° C.

[4] = test system: C. freundii ATCC8090; experiment: Growth inhibition around wells on LB agar plates; format: cell-based, Citrobacter freundii
Experimental: (§1) From an overnight-grown culture of IH3080 on LB agar, a suspension of approx. 10^8 cells/ml was prepared in 0.9% NaCl. Aliquots of this suspension were then pipetted on the agar plates and the plates were gently shaken to spread the suspension evenly on the entire surface of the plate. Thereafter, the unabsorbed part of the suspension was removed by using a Pasteur pipette. After the surface had dried, small wells (diameter, 2 mm) were drilled on the plates (five wells per plate) by using a sterile sharp-edged narrow metal tube, single-use pipette tip, and vacuum suction. An alternative method used a swab to spread the inoculum. Samples (4 μl and 10 μl) of the peptide solution in 0.9% NaCl (at concentrations of 1 μg/ml and 0.1 μg/ml) were then pipetted to the wells and the sample fluids were allowed to absorb. Controls included 0.9% NaCl solution without the compound to be tested. The plates were then incubated for 18 h at 37° C. whereafter the diameters of growth inhibition zones around each well were measured; the diameter of the well itself was not reduced. Finally, the diameters were converted to surface areas of growth inhibition (in square mm).
(§2) The susceptibility of eleven Gram-negative bacterial strains (nine different species) to NAB734 and polymyxin B was compared by using the susceptibility determination method described in Example 2. The strains included those belonging to the species of Serratia marcescens and Proteus mirabilis, both species generally known to be resistant to polymyxin. Furthermore, the susceptibility determination was also performed by using the Gram-positive bacterium, Staphylococcus aureus, also generally known to be polymyxin-resistant. Ten of the strains originated from ATCC (American Type Culture Collection, Manassas, Va., U.S.A.), and one from CCUG (Culture Collection of University of Gothenburg, Sweden). The source of E. coli IH3080 has been described in Example 2. Polymyxin B sulfate was from Sigma-Aldrich (St. Louis, Mo., USA).

[5] = test system: E. cloacae ATCC23355; experiment: Growth inhibition around wells on LB agar plates; format: cell-based, Enterobacter cloacae; conditions: 4 μg
Experimental: as §1, §2

[6] = test system: K. oxytoca ATCC13182; experiment: Growth inhibition around wells on LB agar plates; format: cell-based, Klebsiella oxytoca; conditions: 4 μg
Experimental: as §1, §2

[7] = test system: E. coli IH3080; experiment: E-test MIC with or without NAB7061 (4 μg/ml), Mueller-Hinton agar; format: cell-based, Escherichia coli
How it was run: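 MICs were read from antibiotic gradient strips applied according to the manufacturer's instructions.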

[8] = test system: S. aureus ATCC 25923; experiment: Growth inhibition around wells on LB agar plates; format: cell-based, Staphylococcus aureus
Experimental: as §1, §2

[9] = test system: P. mirabilis ATCC29906; experiment: Growth inhibition around wells on LB agar plates; format: cell-based, Proteus mirabilis
Experimental: as §1, §2

CCCCCCCC(=O)N[C@H](C(=O)N[C@H](CO)C(=O)N[C@H]1CCNC(=O)[C@H]([C@@H](C)O)NC(=O)[C@H](CCN)NC(=O)[C@H](CCN)NC(=O)[C@H](CC(C)C)NC(=O)[C@@H](Cc2ccccc2)NC(=O)[C@H](CCN)NC1=O)[C@@H](C)O [NAB 739, OA-Thr-DSer-cy[Dab-Dab-DPhe-Leu-Dab-Dab-Thr-]] (Octanoyl-T[dS][Dab][Dab][dF]L[Dab][Dab]T; lactam 3-C)
CL renal ([1]; plasma and urine): 0.53 ± 0.3 mL/min/kg
Vd ([1]; plasma): 0.222 ± 0.0205 L/kg
clearance ([1]; plasma): 2.63 ± 0.54 mL/min/kg
half-life ([1]; plasma): 1.15 ± 0.365 h
dose excreted ([1]; urine): 19.4 ± 7.38%
CFU counts from the peritoneum, fold lower than in the saline control group ([2]; 1 mg/kg s.c. at 1 h and 3 h, 7 h postinfection): ≥ 10 000 fold
CFU counts from the peritoneum, fold lower than in the saline control group ([2]; 2 mg/kg s.c. at 1 h and 3 h, both 4 h and 7 h postinfection): ≥ 10 000 fold
CFU counts from the peritoneum, fold lower than in the saline control group ([2]; 4 mg/kg s.c. at 1 h and 3 h, both 4 h and 7 h postinfection): ≥ 10 000 fold

CCCCCCCCCC(=O)N[C@H](C(=O)N[C@H](CO)C(=O)N[C@H]1CCNC(=O)[C@H]([C@@H](C)O)NC(=O)[C@H](CCN)NC(=O)[C@H](CCN)NC(=O)[C@H](CC(C)C)NC(=O)[C@@H](Cc2ccccc2)NC(=O)[C@H](CCN)NC1=O)[C@@H](C)O [NAB 740, DA-Thr-DSer-cy[Dab-Dab-DPhe-Leu-Dab-Dab-Thr-]] (Decanoyl-T[dS][Dab][Dab][dF]L[Dab][Dab]T; lactam 3-C)
MIC [3]: 2 µg/mL (≈ 1.81 µM)

Polymyxin B [reference compound]
growth inhibition around a well ([4]; 4 μg): 95 square millimeters
growth inhibition around a well ([4]; 10 μg): 154 square millimeters
growth inhibition around a well [5]: 95 square millimeters
growth inhibition around a well [6]: 79 square millimeters
Sensitization factor to antibiotic (MIC without / with 4 μg/ml of NAB 7061) [7]: 2
growth inhibition around a well ([8]; 4 μg): 0 square millimeters
growth inhibition around a well ([8]; 10 μg): 0 square millimeters
growth inhibition around a well ([9]; 4 μg): 0 square millimeters
growth inhibition around a well ([9]; 10 μg): 0 square millimeters
